Test results as given in patent US7906488B2, “Sphingolipids in treatment and prevention of steatosis and of steatosis or of hepatotoxicity and its sequelae” (Nederlandse Organisatie Voor …, priority 2004, dated 2011).

Test system: APOE*3Leiden mice
Experiment: Hepatic mRNA expression levels by RT-PCR (normalized to HPRT)
Format: in vivo
Parameters: key to acc1 mRNA, Change / mttp mRNA, Change / dgat1 mRNA, Change / dgat2 mRNA, Change / aco mRNA, Change / ldlr mRNA, Change / apob mRNA, Change / srebp2 mRNA, Change / pparα mRNA, Change / pparγ mRNA, Change / lxrα mRNA, Change / lxrβ mRNA, Change / fxr mRNA, Change / hmgcoAred mRNA, Change / cyp7α mRNA, Change / abca1 mRNA, Change / srebp1c mRNA, Change / fas mRNA, Change: ↑, (upregulated); ↓, (downregulated); n.s., not significant
Description: Plasma parameters: Tail blood samples were collected in EDTA-coated cups, or in paraoxon-coated capillaries to prevent lipolysis as described in Zambon et al. 1993 (Zambon et al. 1993. J. Lipid Res. 34:1021-1028). Plasma lipid parameters were determined using commercial kits for total cholesterol (C) Chol R1 from Roche Diagnostics, Mannheim, Germany), non-esterified free fatty acids (FFA) (NEFA-C; Wako chemicals, Neuss, Germany), Total triglycerides (TG) (Triglyceride GPO-Trinder; Sigma, St. Louis, Mo.), β-hydroxybutyrate (β-HB; Sigma) and ALAT (Reflotron GPT; Roche). Serum amyloid A (SAA) was measured by ELISA (Biosource, Nivelles, Belgium) and fibrinogen by sandwich ELISA, as described in Koopman et al., 2005 (Koopman et al. 2005. Fibrinol Proteol 11:19). For lipoproteins fractionation, groupwise-pooled plasma was size-fractionated by fast protein liquid chromatography (FPLC) on a Superose 6 column (Äkta; Amersham Pharmacia Biotech, Uppsala, Sweden). Fractions were assayed for total C and TG as described. Hepatic VLDL-TG production: The rate of hepatic VLDL-TG production, de novo apoB secretion, and VLDL composition were determined in overnight-fasted mice. Mice were anaesthetized with vetranquil/fentanyl/midazolam i.p., and injected i.v. with 0.1 ml PBS containing 100 μCi Tran^35S-label™ (ICN Biomedicals, Irvine, Calif.) to measure the de novo apoB synthesis. After 30 min, the animals received a Triton WR1339 injection (Tyloxapol, Sigma; 500 mg/kg body weight in 100 μl saline) to prevent systemic lipolysis of newly-secreted hepatic VLDL-TG (Aalto-Setala et al. 1992. J. Clin. Invest 90:1889-1900.27) Blood samples were drawn at 0, 15, 30, 60, and 90 min after Triton WR1339 injection and plasma TG concentrations were determined. After 90 min, the animals were sacrificed and blood was collected by retro-orbital bleeding for isolation of VLDL. VLDL composition: VLDL particles (d<1.019) were separated from other lipoproteins in plasma by density gradient ultra-centrifugation, as described in Jong et al., 1996 (Jong et al. 1996. Arterioscler. Thromb. Vasc. Biol. 16:934-940). Protein content of the VLDL fraction was determined by Lowry's assay (Lowry et al., 1951. J. Biol. Chem. 193:265-275), and TG and total C were determined as described above. Phospholipids and free cholesterol were determined using standard commercial kits (Wako Chemicals, Neuss, Germany). The ^35S-apoB content of VLDL was measured after selective precipitation of apoB with isopropanol as described elsewhere (Li et al. 1996 J. Lipid Res. 37:210-220; Pietzsch et al. 1995. Biochim. Biophys. Acta 1254:77-88). In vivo clearance of VLDL-like TG-rich particles: To determine whether 1% PS accelerates the clearance of TG-rich lipoproteins from plasma, we used radiolabeled emulsion particles as a tool. VLDL-like emulsion particles containing 200 μCi of [^3H]triolein and 20 μCi of [^14C]cholesteryl oleate were prepared and characterized as described in Rensen et al. 1997 (Rensen et al., 1997. J. Lipid Res. 38:1070-1084). Fed mice were anaesthetized as described above and laparotomy was performed. […] After taking the last liver and blood sample, the remainder of the liver, heart, spleen, hind limb muscle, and gonadal, perirenal and intestinal white adipose tissues were harvested. Lipids were extracted overnight at 60° C. in 500 μL of Solvable™, and radioactivity was counted as described in Rensen et al., 1997 (supra). RNA isolation and RT-PCR: Livers from 4 h-fasted mice fed 1% PS-containing diet or control Western-type diet for 5 weeks were removed immediately after sacrifice, flushed with cold 0.9% NaCl and snap frozen in liquid nitrogen. Total RNA was isolated as described by Chomczynski and Sacchi (Chomczynski, P. and Sacchi, N. 1987. Anal. Biochem. 162:156-159) by use of RNA-Bee™ (Campro Scientific, Berlin, Germany). cDNA synthesis was performed according to Bloks et al (Bloks et al., 2001. J. Lipid Res. 42:41-50). […]

[1] = 1% PS diet, 5 weeks, control = 100%

In the case of CCCCCCCCCCCCCC[C@@H](O)[C@@H](O)[C@@H](N)CO [PS, phytosphingosine], the “abca1 mRNA, Change” value (1% PS diet vs control) is reported as “n.s”, the “acc1 mRNA, Change” value (1% PS diet vs control) is reported as “n.s” and the “aco mRNA, Change” value (1% PS diet vs control) is reported as “n.s”. For the same compound, the “apob mRNA, Change” value (1% PS diet vs control) was “n.s”, the “cyp7α mRNA, Change” value (1% PS diet vs control) was “↓” and the “dgat1 mRNA, Change” value (1% PS diet vs control) was “n.s”. The “dgat2 mRNA, Change” value (1% PS diet vs control) was “↑”, the “fas mRNA, Change” value (1% PS diet vs control) was “↑” and the “fxr mRNA, Change” value (1% PS diet vs control) was “↑”. For the same compound, the “hmgcoAred mRNA, Change” value (1% PS diet vs control) was “↑”, the “ldlr mRNA, Change” value (1% PS diet vs control) was “↑” and the “lxrα mRNA, Change” value (1% PS diet vs control) was “↑”. For the same compound, the “lxrβ mRNA, Change” value (1% PS diet vs control) was “↓”, the “mttp mRNA, Change” value (1% PS diet vs control) was “↑” and the “pparα mRNA, Change” value (1% PS diet vs control) was “n.s”. The “pparγ mRNA, Change” value (1% PS diet vs control) was “n.s”, the “srebp1c mRNA, Change” value (1% PS diet vs control) was “↑” and the “srebp2 mRNA, Change” value (1% PS diet vs control) was “↑”. For the same compound, the “abca1 hepatic mRNA level” value [1] was 79 ± 6%, the “acc1 hepatic mRNA level” value [1] was 138 ± 29% and the “aco hepatic mRNA level” value [1] was 56 ± 9%. The “apob hepatic mRNA level” value [1] was 105 ± 25%, the “cyp7α hepatic mRNA level” value [1] was 7 ± 2% and the “dgat1 hepatic mRNA level” value [1] was 112 ± 27%. The “dgat2 hepatic mRNA level” value [1] was 185 ± 23%, the “fas hepatic mRNA level” value [1] was 237 ± 33% and the “fxr hepatic mRNA level” value [1] was 164 ± 58%. For the same compound, the “hmgcoAred hepatic mRNA level” value [1] was 444 ± 71%, the “ldlr hepatic mRNA level” value [1] was 209 ± 14% and the “lxrα hepatic mRNA level” value [1] was 162 ± 13%. The “lxrβ hepatic mRNA level” value [1] was 16 ± 8%, the “mttp hepatic mRNA level” value [1] was 167 ± 5% and the “pparα hepatic mRNA level” value [1] was 125 ± 10%. The “pparγ hepatic mRNA level” value [1] was 119 ± 10%, the “srebp1c hepatic mRNA level” value [1] was 194 ± 3% and the “srebp2 hepatic mRNA level” value [1] was 317 ± 33%.
